From the supplement of paper PMC10307832

Columns and labels:
Test in all cases: relative viability (nuclei count vs DMSO), 5 days (fraction); higher = more cells survive
AZD5582 + Foretinib = compound: C[C@@H](C(=O)N[C@@H](C1CCCCC1)C(=O)N2CCC[C@H]2C(=O)N[C@@H]3[C@@H](CC4=CC=CC=C34)OCC#CC#CCO[C@@H]5CC6=CC=CC=C6[C@@H]5NC(=O)[C@@H]7CCCN7C(=O)[C@H](C8CCCCC8)NC(=O)[C@H](C)NC)NC [AZD5582] + COc1cc2c(Oc3ccc(NC(=O)C4(C(=O)Nc5ccc(F)cc5)CC4)cc3F)ccnc2cc1OCCCN1CCOCC1 [Foretinib] (partner 0.25 µM)
Outline: (§1)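 Five library-drug doses in √10 steps were combined with a fixed anchor-drug dose, or a single drug was given alone, by pin tool to lung cancer cell lines in 1536-well plates the day after seeding. Nuclei were stained and counted after 5 days. Relative viability is the nuclei count in treated wells over that in vehicle wells, taken as the median of duplicate plates.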

AZD5582 + Lapatinib = compound: C[C@@H](C(=O)N[C@@H](C1CCCCC1)C(=O)N2CCC[C@H]2C(=O)N[C@@H]3[C@@H](CC4=CC=CC=C34)OCC#CC#CCO[C@@H]5CC6=CC=CC=C6[C@@H]5NC(=O)[C@@H]7CCCN7C(=O)[C@H](C8CCCCC8)NC(=O)[C@H](C)NC)NC [AZD5582] + CS(=O)(=O)CCNCc1ccc(-c2ccc3ncnc(Nc4ccc(OCc5cccc(F)c5)c(Cl)c4)c3c2)o1 [Lapatinib] (partner 2 µM)
Outline: as §1

Temozolomide + Olaparib = compound: Cn1nnc2c(C(N)=O)ncn2c1=O [Temozolomide] + O=C(c1cc(Cc2n[nH]c(=O)c3ccccc23)ccc1F)N1CCN(C(=O)C2CC2)CC1 [Olaparib] (partner 8 µM)
Outline: as §1

Temozolomide + OSI-027 = compound: Cn1nnc2c(C(N)=O)ncn2c1=O [Temozolomide] + COc1cccc2cc(-c3nc([C@H]4CC[C@H](C(=O)O)CC4)n4ncnc(N)c34)[nH]c12 [OSI-027] (partner 0.5 µM)
Outline: as §1

| Cell Line | relative viability (AZD5582 + Foretinib; first compound 0.001581 µM) | relative viability (AZD5582 + Foretinib; first compound 0.005 µM) | relative viability (AZD5582 + Foretinib; first compound 0.01581 µM) | relative viability (AZD5582 + Foretinib; first compound 0.05 µM) | relative viability (AZD5582 + Lapatinib; first compound 0.005 µM) | relative viability (AZD5582 + Lapatinib; first compound 0.01581 µM) | relative viability (AZD5582 + Lapatinib; first compound 0.05 µM) | relative viability (Temozolomide + Olaparib; first compound 0.2 µM) | relative viability (Temozolomide + Olaparib; first compound 0.6325 µM) | relative viability (Temozolomide + Olaparib; first compound 2 µM) | relative viability (Temozolomide + Olaparib; first compound 6.325 µM) | relative viability (Temozolomide + Olaparib; first compound 20 µM) | relative viability (Temozolomide + OSI-027; first compound 0.2 µM) | relative viability (Temozolomide + OSI-027; first compound 0.6325 µM) | relative viability (Temozolomide + OSI-027; first compound 2 µM) | relative viability (Temozolomide + OSI-027; first compound 6.325 µM) | relative viability (Temozolomide + OSI-027; first compound 20 µM) | relative viability (AZD5582 + Lapatinib; first compound 0.001581 µM) |
| --- | --- | --- | --- | --- | --- | --- | --- | --- | --- | --- | --- | --- | --- | --- | --- | --- | --- | --- |
| LCLC-97TM1 | 0.913 | 0.94 | 0.908 | 0.958 | 0.627 | 0.404 | 0.294 | 0.512 | 0.447 | 0.436 | 0.238 | 0.226 | 0.554 | 0.525 | 0.571 | 0.486 | 0.524 |  |
| LK-2 | 0.88 | 1.12 | 1.49 | 1.25 | 1.03 | 0.965 | 0.952 | 0.736 | 0.702 | 0.593 | 0.355 | 0.257 | 0.2 | 0.218 | 0.214 | 0.168 | 0.196 | 0.654 |
| LOU-NH91 | 0.858 | 0.861 | 0.934 | 0.949 | 0.817 | 0.794 | 0.797 | 0.8 | 0.936 | 0.913 | 0.863 | 0.547 | 0.494 | 0.729 | 0.781 | 0.756 | 0.493 | 0.815 |
| LU99A | 0.871 | 0.948 | 0.886 | 1.03 | 1.28 | 0.923 | 1.17 | 0.285 | 0.258 | 0.295 | 0.155 | 0.119 | 0.27 | 0.317 | 0.321 | 0.283 | 0.306 | 1.15 |
| LXF-289 | 0.941 | 0.944 | 1.03 | 0.977 | 0.929 | 0.823 | 0.922 | 1.11 | 1.13 | 1.03 | 0.951 | 0.774 | 0.772 | 0.863 | 0.927 | 0.76 | 0.63 | 0.895 |
| NCI-H23 | 0.762 | 0.872 | 0.787 | 0.952 | 0.951 | 0.783 | 0.652 | 0.345 | 0.32 | 0.382 | 0.266 | 0.22 | 0.547 | 0.682 | 0.565 | 0.59 | 0.461 | 0.664 |
| NCI-H322M | 1.07 | 1.06 |  | 1.29 | 0.796 | 0.619 | 0.774 | 0.671 | 0.734 | 0.727 | 0.692 | 0.555 |  | 0.525 | 0.569 | 0.54 | 0.433 | 0.678 |
| NCI-H358 | 0.684 | 0.938 | 0.779 | 0.626 | 0.566 | 0.477 | 0.452 | 0.706 | 0.732 | 0.631 | 0.545 | 0.351 | 0.437 | 0.795 | 0.697 | 0.689 | 0.583 | 0.484 |
| NCI-H460 | 0.916 | 1.03 | 0.952 | 0.97 | 0.959 | 0.932 | 1.43 | 0.488 | 0.47 | 0.366 | 0.317 | 0.214 | 0.853 | 0.688 | 0.761 | 0.682 | 0.656 | 0.836 |
| NCI-H520 | 0.651 | 0.777 | 0.81 | 0.697 | 0.945 | 0.818 | 1.01 | 0.391 | 0.33 | 0.312 | 0.284 | 0.242 | 0.211 | 0.298 | 0.255 | 0.271 | 0.239 | 0.738 |
| NCI-H596 |  |  | 1.19 | 0.279 | 0.829 | 0.959 | 0.326 | 0.685 | 0.694 | 0.764 | 0.677 | 0.657 | 0.835 | 0.76 | 0.692 | 0.691 | 0.835 | 0.851 |
| NCI-H647 | 1.08 | 1.16 | 1.1 | 1.21 | 0.943 | 0.98 | 0.767 | 0.721 | 0.616 | 0.5 | 0.176 | 0.0916 | 0.676 | 0.661 | 0.776 | 0.431 | 0.185 | 0.839 |
| NCI-H650 | 1 | 0.958 | 0.91 | 0.794 | 0.787 | 0.428 | 0.606 | 0.387 | 0.39 | 0.358 | 0.274 | 0.202 | 0.562 | 0.535 | 0.584 | 0.506 | 0.534 | 0.592 |
| NCI-H661 | 0.954 | 0.982 | 1.03 | 0.98 | 0.561 | 0.53 | 0.716 | 0.744 | 0.735 | 0.731 | 0.634 | 0.551 | 0.534 | 0.759 | 0.737 | 0.716 | 0.55 | 0.38 |
| NCI-H727 | 0.867 | 1.03 | 1.01 | 0.825 | 0.868 | 0.822 | 0.89 |  | 0.681 | 0.791 | 0.516 | 0.55 | 0.638 | 0.779 | 0.712 | 0.493 | 0.534 | 0.613 |
| NCI-H838 | 0.985 | 1.19 |  | 1.06 | 0.964 | 0.746 | 0.979 | 0.785 | 0.776 | 0.818 | 0.719 | 0.687 | 0.426 | 0.485 | 0.397 | 0.419 | 0.411 | 0.823 |
| NCI-H1355 | 0.894 | 0.881 | 0.938 | 0.705 | 0.887 | 0.952 | 0.718 | 0.743 | 0.753 | 0.723 | 0.646 | 0.617 | 0.349 | 0.421 | 0.455 | 0.382 | 0.352 | 0.945 |
